The values below come from patent US8202865B2, “Oxadiazole derivatives” (Merck Serono SA, priority 2007, dated 2012).

Test [1] has as its target T1, S1P1 (Homo sapiens, UniProt P21453).
T1 construct: expressed in transfected cells; host or cells: CHO cells (membranes)
Kind of test: Receptor binding assay, [33P]sphingosine 1-phosphate, membranes, WGA SPA beads. The note with it: membranes from CHO cells expressing S1P1; 25 pM [33P]S1P; 60 min RT. The procedure:
Receptor binding assay: Membranes were prepared from CHO cells expressing S1P1 or S1P3 for use in ligand and […] binding studies. Cells were suspended in 50 mM TRIS, pH 7.4, 2 mM EDTA, 250 mM Sucrose (buffer A) and 1× Complete protease inhibitor cocktail (Roche), and disrupted at 4° C. by N2 decompression using a cell disruption bomb (Parr Instrument). Following centrifugation at 1000 RPM for 10 min at 4° C., the supernatant was suspended in buffer A and centrifuged again at 19000 RPM for 60 min at 4° C. The pellet was then suspended in 10 mM HEPES, pH 7.4, 1 mM EDTA, 250 mM Sucrose (Buffer B), and 1× Complete EDTA-free protease inhibitor cocktail and homogenized using a potter. Membranes were flash frozen in liquid N2 and stored at −80° C. [33P]sphingosine 1-phosphate (3000 Ci/mmol; American Radiolabeled Chemicals, Inc.) was added to test compounds in DMSO. Membranes and WGA SPA beads (GE Healthcare) were added to give a final volume of 100 μl in 96-well plates with assay concentrations of 25 pM or 10 pM [33P]sphingosine 1-phosphate (respectively for S1P1 or S1P3), 50 mM HEPES, pH 7.5, 5 mM MgCl2, 100 mM NaCl, 0.4% fatty acid-free BSA, 1-5 μg/well of proteins and 100 μg/well of WGA SPA beads. Binding was performed for 60 min at RT on a shaker and bound radioactivity was measured on a PerkinElmer 1450 MicroBeta counter. Specific binding was calculated by subtracting remaining radioactivity in the presence of 1000-fold excess of unlabeled S1P. Binding data were analyzed using the GraphPad Prism program.

Test [2] has as its target T1, S1P1. Kind of test: 35S-GTPγS binding, S1P1 membranes. The class given is biochemical. The following applies: membranes from CHO cells expressing S1P1; 60 min 30° C. In a few lines:
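CHO-cell membranes expressing S1P1 or S1P3 (1-10 μg) incubated with compounds in 20 mM HEPES pH 7.4, 10 mM MgCl2, 140 mM NaCl, saponin, 0.2% BSA, 1.7 μM GDP and [35S]-GTPγS (20 μl of 1.5 nM added), 60 min at 30° C. Bound radioactivity expressed as % of S1P activation.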

Counter-ions that a name gives are not always drawn.

T1 sequence (P21453 whole entry, species assumed): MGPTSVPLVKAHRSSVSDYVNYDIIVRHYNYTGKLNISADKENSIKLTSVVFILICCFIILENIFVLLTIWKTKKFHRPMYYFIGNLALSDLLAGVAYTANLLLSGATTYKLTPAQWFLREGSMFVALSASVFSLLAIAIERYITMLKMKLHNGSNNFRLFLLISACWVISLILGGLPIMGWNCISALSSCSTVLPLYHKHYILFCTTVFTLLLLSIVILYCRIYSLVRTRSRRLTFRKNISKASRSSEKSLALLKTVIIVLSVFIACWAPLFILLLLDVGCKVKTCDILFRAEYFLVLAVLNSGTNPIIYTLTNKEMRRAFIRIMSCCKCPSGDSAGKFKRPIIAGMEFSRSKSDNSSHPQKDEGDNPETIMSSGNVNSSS

One may read the Ki as a dissociation constant, usually derived from enzyme kinetics or from competition with a known ligand. High values mean lower affinity, low ones higher affinity. Compound `Cc1cccc(C)c1-c1ccc(-c2nc(-c3ccc(C(=O)O)c(F)c3)no2)cc1` [Example 3, 4-[5-(2′,6′-dimethylbiphenyl-4-yl)-1,2,4-oxadiazol-3-yl]-2-fluorobenzoic acid] had an inhibition constant Ki on S1P1 [1] of 2.6 µM.

What is called EC50 is the concentration giving half of the maximal effect. The low end stands for higher potency in that assay, the high end for lower potency in that assay. As to `COCCN(C)Cc1cccc(-c2noc(-c3ccc(-c4ccccc4C)c(COC)c3)n2)c1` [Example 185, 2-methoxy-N-(3-{5-[2-(methoxymethyl)-2′-methylbiphenyl-4-yl]-1,2,4-oxadiazol-3-yl}benzyl)-N-methylethanamine, Hydrochloride salt], the affinity on S1P1 [1] corresponds to a Ki of 0.007 µM. The EC50 on S1P1 [2] worked out at 0.005 µM.

`O=C(O)c1ccc(-c2noc(-c3ccc(-c4ccccc4C(F)(F)F)cc3)n2)cc1F` [Example 1, 2-fluoro-4-{5-[2′-(trifluoromethyl)biphenyl-4-yl]-1,2,4-oxadiazol-3-yl}benzoic acid] showed a Ki at S1P1 [1] of 2.47 µM.

In turn, `CC(C)Oc1ncc(-c2nc(-c3ccc(C(=O)O)c(F)c3)no2)cc1Cl` [Example 36, 4-[5-(5-chloro-6-isopropoxypyridin-3-yl)-1,2,4-oxadiazol-3-yl]-2-fluorobenzoic acid] gave an inhibition constant Ki on S1P1 [1] of 0.53 µM.

For `COCc1cc(-c2nc(-c3ccc(C(=O)NCC(=O)OC)c(F)c3)no2)ccc1-c1ccccc1C` [Example 122, Methyl N-(2-fluoro-4-{5-[2-(methoxymethyl)-2′-methylbiphenyl-4-yl]-1,2,4-oxadiazol-3-yl}benzoyl)glycinate], the Ki at S1P1 [1] is 0.0009 µM. Moreover, at S1P1 [2], a half-maximal response (EC50) required 0.0025 µM.

Compound `COCc1cc(-c2nc(-c3ccc(C(=O)NCCC#N)c(F)c3)no2)ccc1-c1ccccc1C` [Example 173, N-(2-cyanoethyl)-2-fluoro-{5-[2-(methoxymethyl)-2′-methylbiphenyl-4-yl]-1,2,4-oxadiazol-3-yl}benzamide] showed an inhibition constant (Ki) on S1P1 [1] of 0.002 µM. Also, the half-maximal effective concentration (EC50) at S1P1 [2] came out at 0.006 µM.

Regarding `COCc1cc(-c2nc(-c3ccc(C(=O)O)c(F)c3)no2)ccc1-c1ccccc1C` [Example 35, 2-fluoro-4-{5-[2-(methoxymethyl)-2′-methylbiphenyl-4-yl]-1,2,4-oxadiazol-3-yl}benzoic acid], the inhibition constant (Ki) on S1P1 [1] was 0.01 µM. At S1P1 [2], this compound showed an EC50 of 0.03 µM.

Turning to `CCOc1ccccc1-c1ccc(-c2nc(-c3ccc(C(=O)O)c(F)c3)no2)cc1COC` [Example 90, 4-{5-[2′-ethoxy-2-(methoxymethyl)biphenyl-4-yl]-1,2,4-oxadiazol-3-yl}-2-fluorobenzoic acid], the EC50 on S1P1 [2] stood at 0.479 µM. This lies in the sub-micromolar range.

At S1P1 [2], `COCc1cc(-c2nc(-c3cccc(CNCCC(=O)OC(C)(C)C)c3)no2)ccc1-c1ccccc1C` [Example 153, tert-butyl N-(3-{5-[2-(methoxymethyl)-2′-methylbiphenyl-4-yl]-1,2,4-oxadiazol-3-yl}benzyl)-beta-alaninate] came in with an EC50 of 0.0252 µM.

For `Cc1cc(-c2nc(-c3ccc(C(=O)O)c(F)c3)no2)ccc1-c1ccccc1` [Example 6, 2-fluoro-4-[5-(2-methylbiphenyl-4-yl)-1,2,4-oxadiazol-3-yl]benzoic acid], the EC50 on S1P1 [2] came to 2.92 µM. Against the preceding compound, the EC50 is about 120-fold higher.

`CCc1ccccc1-c1ccc(-c2nc(-c3ccc(C(=O)OC)c(F)c3)no2)cc1COC` [Example 80, methyl 4-{5-[2′-ethyl-2-(methoxymethyl)biphenyl-4-yl]-1,2,4-oxadiazol-3-yl}-2-fluorobenzoate] gave an EC50 on S1P1 [2] of 0.274 µM.

Compound `COCc1cc(-c2nc(-c3ccc(C(=O)O)c(F)c3)no2)ccc1OC(C)C` [Example 111, 2-fluoro-4-{5-[4-isopropoxy-3-(methoxymethyl)phenyl]-1,2,4-oxadiazol-3-yl}benzoic acid] returned an EC50 on S1P1 [2] of 0.61 µM.

At S1P1 [2], `C#CCOc1ncc(-c2nc(-c3ccc(OCC(=O)O)c(F)c3)no2)cc1Cl` [Example 51, (4-{5-[5-chloro-6-(prop-2-yn-1-yloxy)pyridin-3-yl]-1,2,4-oxadiazol-3-yl}-2-fluorophenoxy)acetic acid] showed a concentration giving a half-maximal response (EC50) of 2.02 µM. Compared with the last compound, the EC50 is about 3.3-fold higher.

As to `CC(C)COc1ccc(-c2nc(-c3ccc(C(=O)O)c(F)c3)no2)cc1NS(C)(=O)=O` [Example 64, 2-fluoro-4-(5-{4-isobutoxy-3-[(methylsulfonyl)amino]phenyl}-1,2,4-oxadiazol-3-yl)benzoic acid], on S1P1 [2], the 50% effective concentration (EC50) turned out to be 4.72 µM.

`CCC(=O)Nc1cc(-c2nc(-c3ccc(C(=O)O)c(F)c3)no2)ccc1N1CCCCC1C` (stereo not drawn) [Example 72, 2-fluoro-4-{5-[4-(2-methylpiperidin-1-yl)-3-(propionylamino)phenyl]-1,2,4-oxadiazol-3-yl}benzoic acid]: at S1P1 [2], the EC50 was 8.51 µM.

The compound `COCc1cc(-c2nc(-c3ccc(C(=O)O)c(F)c3)no2)ccc1-c1cc(F)ccc1F` [Example 91, 4-{5-[2′,5′-difluoro-2-(methoxymethyl)biphenyl-4-yl]-1,2,4-oxadiazol-3-yl}-2-fluorobenzoic acid] registered an EC50 at S1P1 [2] of 0.41 µM.

Compound `COCc1cc(-c2nc(-c3ccc(C(=O)O)c(F)c3)no2)ccc1-c1cccc(OC)c1OC` [Example 82, 4-{5-[2′,3′-dimethoxy-2-(methoxymethyl)biphenyl-4-yl]-1,2,4-oxadiazol-3-yl}-2-fluorobenzoic acid] registered an EC50 on S1P1 [2] of 1.58 µM.

On S1P1 [2], `COCCOCc1cccc(-c2noc(-c3ccc(-c4ccccc4C)c(COC)c3)n2)c1` [Example 192] displayed an EC50 of 0.0061 µM.

In turn, `Cc1ccccc1-c1ccc(-c2nc(-c3ccc(C(=O)O)c(F)c3)no2)cc1COCC(C)C` [Example 60, 2-fluoro-4-{5-[2-(isobutoxymethyl)-2′-methylbiphenyl-4-yl]-1,2,4-oxadiazol-3-yl}benzoic acid] showed an EC50 at S1P1 [2] of 3.7 µM.

The compound `COCCOc1cc(-c2nc(-c3ccc(C(=O)O)c(F)c3)no2)ccc1-c1ccccc1C` [Example 103, 2-fluoro-4-{5-[2-(2-methoxyethoxy)-2′-methylbiphenyl-4-yl]-1,2,4-oxadiazol-3-yl}benzoic acid] came in with an EC50 at S1P1 [2] of 0.257 µM.

On S1P1 [2], `COCC1CCCN1c1ncc(-c2nc(-c3ccc(S(N)(=O)=O)cc3)no2)cc1C` (stereo not drawn) [Example 41, 4-(5-{6-[2-(methoxymethyl)pyrrolidin-1-yl]-5-methylpyridin-3-yl}-1,2,4-oxadiazol-3-yl)benzenesulfonamide] showed a concentration for a half-maximal effect (EC50) of 1.09 µM. Compared with the last compound, the EC50 is about 4.2-fold higher.

On to `COCCNC(=O)c1ccc(-c2noc(-c3ccc(-c4ccccc4C)c(COC)c3)n2)cc1F` [Example 172, 2-fluoro-N-(2-methoxyethyl)-4-{5-[2-(methoxymethyl)-2′-methylbiphenyl-4-yl]-1,2,4-oxadiazol-3-yl}benzamide], for which the concentration for a half-maximal effect (EC50) at S1P1 [2] turned out to be 0.033 µM.

`CC1CCCCN1c1ccc(-c2nc(-c3ccc(F)c(C(=O)O)c3)no2)cc1C(F)(F)F` (stereo not drawn) [Example 33, 2-fluoro-5-{5-[4-(2-methylpiperidin-1-yl)-3-(trifluoromethyl)phenyl]-1,2,4-oxadiazol-3-yl}benzoic acid] returned a half-maximal effective concentration (EC50) on S1P1 [2] of 0.18 µM. This EC50 lies about 5.5-fold higher than the previous one.

As for `COCc1cc(-c2nc(-c3ccc(C(=O)O)c(F)c3)no2)ccc1-c1ccc(F)cc1C` [Example 94, 2-fluoro-4-{5-[4′-fluoro-2-(methoxymethyl)-2′-methylbiphenyl-4-yl]-1,2,4-oxadiazol-3-yl}benzoic acid], at S1P1 [2], the midpoint of the response, the EC50, lay at 0.513 µM.

With `COCc1cc(-c2nc(-c3ccc(F)c(CN(C)CCC(=O)O)c3)no2)ccc1-c1ccccc1C` [Example 154, N-(2-fluoro-5-{5-[2-(methoxymethyl)-2′-methylbiphenyl-4-yl]-1,2,4-oxadiazol-3-yl}benzyl)-N-methyl-beta-alanine, Hydrochloride salt], it took 0.0012 µM to reach a half-maximal effect at S1P1 [2] (EC50). This EC50 lies about 430-fold lower than the previous one.

At S1P1 [2], `COCc1cc(-c2nc(-c3cccc(CNCCC(=O)O)c3)no2)ccc1-c1ccccc1C` [Example 155, N-(3-{5-[2-(methoxymethyl)-2′-methylbiphenyl-4-yl]-1,2,4-oxadiazol-3-yl}benzyl)-beta-alanine, Hydrochloride salt] returned an EC50 of 0.0004 µM. This EC50 is about 3-fold lower than that of the compound before.

`COCc1cc(-c2nc(-c3cccc(CNCCC(=O)OC)c3)no2)ccc1-c1ccccc1C` [Example 145, Methyl N-(3-{5-[2-(methoxymethyl)-2′-methylbiphenyl-4-yl]-1,2,4-oxadiazol-3-yl}benzyl)-beta-alaninate] gave an EC50 on S1P1 [2] of 0.0023 µM.

In turn, `Cc1ccccc1-c1ccc(-c2nc(-c3ccc(C(=O)O)c(F)c3)no2)cc1O` [Example 99, 2-fluoro-4-[5-(2-hydroxy-2′-methylbiphenyl-4-yl)-1,2,4-oxadiazol-3-yl]benzoic acid] gave an EC50 at S1P1 [2] of 7.7 µM.

For the compound `COCc1cc(-c2nc(-c3ccc(C(=O)NCCC(=O)OC)c(F)c3)no2)ccc1-c1ccccc1C` [Example 117, Methyl N-(2-fluoro-4-{5-[2-(methoxymethyl)-2′-methylbiphenyl-4-yl]-1,2,4-oxadiazol-3-yl}benzoyl)-beta-alaninate], on S1P1 [2], a half-maximal effect (EC50) was put at 0.009 µM.
